From ChEMBL document CHEMBL1909046, “DrugMatrix in vitro pharmacology data”

Key:
[1] = target: Kappa-type opioid receptor (Homo sapiens, UniProt P41145); experiment: DRUGMATRIX: Opiate kappa (OP2, KOP) radioligand binding (ligand: [3H] Diprenorphine); type: cell membranes, HEK293, Membrane; conditions: hek293; Not Active = under 50% inhibition at 10 µM
[2] = target: T1, Vasoactive intestinal polypeptide receptor 1 (Homo sapiens, UniProt P32241); type: cell membranes, Membrane; conditions: ht-29; further: in other assays of this panel Not Active means under 50% inhibition at 10 µM
T1 sequence (P32241 whole entry): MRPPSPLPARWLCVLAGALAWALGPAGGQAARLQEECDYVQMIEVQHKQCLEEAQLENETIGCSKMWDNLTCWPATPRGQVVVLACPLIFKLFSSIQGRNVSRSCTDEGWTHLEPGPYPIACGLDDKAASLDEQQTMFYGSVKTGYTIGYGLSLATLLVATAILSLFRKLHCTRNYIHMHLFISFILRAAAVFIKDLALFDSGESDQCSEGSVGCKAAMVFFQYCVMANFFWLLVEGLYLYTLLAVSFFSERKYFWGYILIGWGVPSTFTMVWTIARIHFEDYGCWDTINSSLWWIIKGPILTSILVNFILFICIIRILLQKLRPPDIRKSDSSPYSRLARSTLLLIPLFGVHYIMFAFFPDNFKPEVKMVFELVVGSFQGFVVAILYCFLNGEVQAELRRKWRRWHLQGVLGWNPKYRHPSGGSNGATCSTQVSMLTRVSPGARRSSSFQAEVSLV

[3] = target: Mitogen-activated protein kinase 14 (Homo sapiens, UniProt Q16539); set-up: species or system Escherichia coli;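 further: inhibition of p38alpha enzyme activity in a biochemical kinase assay, with myelin basic protein serving as substrate; in other assays of this panel Not Active means under 50% inhibition at 10 µM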
Sequence of Mitogen-activated protein kinase 14 (Q16539 whole entry): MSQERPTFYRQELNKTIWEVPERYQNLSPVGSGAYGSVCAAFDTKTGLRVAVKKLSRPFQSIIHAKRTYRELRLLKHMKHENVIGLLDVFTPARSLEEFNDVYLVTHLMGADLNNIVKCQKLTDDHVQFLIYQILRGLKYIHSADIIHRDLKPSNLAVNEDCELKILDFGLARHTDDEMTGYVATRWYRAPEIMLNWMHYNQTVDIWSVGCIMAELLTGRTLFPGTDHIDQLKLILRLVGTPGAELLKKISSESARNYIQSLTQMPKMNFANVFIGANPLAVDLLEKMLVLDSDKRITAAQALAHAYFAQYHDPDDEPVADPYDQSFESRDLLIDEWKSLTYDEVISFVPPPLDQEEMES

[4] = target: Receptor tyrosine-protein kinase erbB-2 (Homo sapiens, UniProt P04626); experiment: biochemical; type: cell-based, Insect cells; conditions: insect cells;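 further: inhibition of HER2 kinase enzyme activity, measured with Poly(Glu:Tyr) as the phosphorylation substrate; in other assays of this panel Not Active means under 50% inhibition at 10 µM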
Sequence of Receptor tyrosine-protein kinase erbB-2 (P04626 whole entry): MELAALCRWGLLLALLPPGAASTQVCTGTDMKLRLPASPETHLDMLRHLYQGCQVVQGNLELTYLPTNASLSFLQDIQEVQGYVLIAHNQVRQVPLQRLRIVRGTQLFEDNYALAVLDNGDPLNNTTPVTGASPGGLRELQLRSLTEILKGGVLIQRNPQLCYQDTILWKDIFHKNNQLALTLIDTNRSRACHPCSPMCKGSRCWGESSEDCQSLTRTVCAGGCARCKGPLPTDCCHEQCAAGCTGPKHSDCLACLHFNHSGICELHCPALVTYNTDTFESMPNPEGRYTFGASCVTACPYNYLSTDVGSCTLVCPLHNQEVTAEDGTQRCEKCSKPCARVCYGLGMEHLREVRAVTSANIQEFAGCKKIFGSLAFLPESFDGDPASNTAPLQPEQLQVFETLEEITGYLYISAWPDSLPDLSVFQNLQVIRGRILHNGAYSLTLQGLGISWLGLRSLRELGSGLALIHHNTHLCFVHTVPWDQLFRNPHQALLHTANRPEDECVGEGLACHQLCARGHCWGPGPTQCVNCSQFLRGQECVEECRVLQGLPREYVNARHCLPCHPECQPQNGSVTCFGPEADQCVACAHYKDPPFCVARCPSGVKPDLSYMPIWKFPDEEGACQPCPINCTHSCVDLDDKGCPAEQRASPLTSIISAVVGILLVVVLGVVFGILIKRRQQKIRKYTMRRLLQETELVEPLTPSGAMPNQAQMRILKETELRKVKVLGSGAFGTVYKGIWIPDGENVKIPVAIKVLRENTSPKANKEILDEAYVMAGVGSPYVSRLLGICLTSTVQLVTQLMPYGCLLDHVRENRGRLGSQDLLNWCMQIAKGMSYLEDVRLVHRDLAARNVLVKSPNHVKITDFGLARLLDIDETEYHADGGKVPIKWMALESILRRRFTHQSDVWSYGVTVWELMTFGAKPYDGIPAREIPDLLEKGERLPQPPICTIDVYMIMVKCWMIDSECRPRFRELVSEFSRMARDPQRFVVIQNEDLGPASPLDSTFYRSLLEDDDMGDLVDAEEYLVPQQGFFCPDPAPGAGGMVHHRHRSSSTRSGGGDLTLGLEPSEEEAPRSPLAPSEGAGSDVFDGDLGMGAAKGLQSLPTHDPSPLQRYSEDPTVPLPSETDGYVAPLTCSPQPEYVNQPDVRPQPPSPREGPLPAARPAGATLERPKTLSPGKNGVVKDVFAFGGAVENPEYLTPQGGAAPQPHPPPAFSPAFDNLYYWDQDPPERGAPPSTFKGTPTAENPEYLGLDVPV

[5] = DRUGMATRIX: beta-Lactamase enzyme inhibition (substrate: Nitrocefin); set-up: species or system Bacillus cereus; conditions: Not Active = under 50% inhibition at 10 µM
[6] = DRUGMATRIX: Glutamate, AMPA radioligand binding (ligand: [3H] AMPA); type: cell membranes, Rattus norvegicus, Wistar, Cerebral cortex, Membrane; conditions: Not Active = under 50% inhibition at 10 µM
Glycine receptor = Glycine receptor (Rattus norvegicus, UniProt P22771+P24524+P07727+P20781); type: cell membranes, Wistar, Spinal cord, Membrane; further: in other assays of this panel Not Active means under 50% inhibition at 10 µM
Cytochrome P450 2A6 = target: T2, Cytochrome P450 2A6 (Homo sapiens, UniProt P11509); conditions: bti-tn-5b1-4; further: in other assays of this panel Not Active means under 50% inhibition at 10 µM
T2 sequence (P11509 whole entry): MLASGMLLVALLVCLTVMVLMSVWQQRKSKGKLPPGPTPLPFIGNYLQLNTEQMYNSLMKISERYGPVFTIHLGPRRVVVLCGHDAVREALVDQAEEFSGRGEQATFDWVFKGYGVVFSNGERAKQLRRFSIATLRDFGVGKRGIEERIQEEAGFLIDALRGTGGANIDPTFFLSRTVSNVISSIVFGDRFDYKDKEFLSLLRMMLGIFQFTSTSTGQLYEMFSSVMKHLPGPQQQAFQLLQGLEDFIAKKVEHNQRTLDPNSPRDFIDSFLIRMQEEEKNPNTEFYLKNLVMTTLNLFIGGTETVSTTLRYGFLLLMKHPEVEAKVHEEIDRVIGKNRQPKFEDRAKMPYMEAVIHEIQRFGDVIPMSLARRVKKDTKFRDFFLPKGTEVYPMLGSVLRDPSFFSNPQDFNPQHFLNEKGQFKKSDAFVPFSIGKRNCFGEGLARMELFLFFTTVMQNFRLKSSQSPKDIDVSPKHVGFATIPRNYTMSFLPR

[7] = target: Vascular endothelial growth factor receptor 1 (Homo sapiens, UniProt P17948); type: cell-based; conditions: huvec; further: in other assays of this panel Not Active means under 50% inhibition at 10 µM
Sequence of Vascular endothelial growth factor receptor 1 (P17948 whole entry): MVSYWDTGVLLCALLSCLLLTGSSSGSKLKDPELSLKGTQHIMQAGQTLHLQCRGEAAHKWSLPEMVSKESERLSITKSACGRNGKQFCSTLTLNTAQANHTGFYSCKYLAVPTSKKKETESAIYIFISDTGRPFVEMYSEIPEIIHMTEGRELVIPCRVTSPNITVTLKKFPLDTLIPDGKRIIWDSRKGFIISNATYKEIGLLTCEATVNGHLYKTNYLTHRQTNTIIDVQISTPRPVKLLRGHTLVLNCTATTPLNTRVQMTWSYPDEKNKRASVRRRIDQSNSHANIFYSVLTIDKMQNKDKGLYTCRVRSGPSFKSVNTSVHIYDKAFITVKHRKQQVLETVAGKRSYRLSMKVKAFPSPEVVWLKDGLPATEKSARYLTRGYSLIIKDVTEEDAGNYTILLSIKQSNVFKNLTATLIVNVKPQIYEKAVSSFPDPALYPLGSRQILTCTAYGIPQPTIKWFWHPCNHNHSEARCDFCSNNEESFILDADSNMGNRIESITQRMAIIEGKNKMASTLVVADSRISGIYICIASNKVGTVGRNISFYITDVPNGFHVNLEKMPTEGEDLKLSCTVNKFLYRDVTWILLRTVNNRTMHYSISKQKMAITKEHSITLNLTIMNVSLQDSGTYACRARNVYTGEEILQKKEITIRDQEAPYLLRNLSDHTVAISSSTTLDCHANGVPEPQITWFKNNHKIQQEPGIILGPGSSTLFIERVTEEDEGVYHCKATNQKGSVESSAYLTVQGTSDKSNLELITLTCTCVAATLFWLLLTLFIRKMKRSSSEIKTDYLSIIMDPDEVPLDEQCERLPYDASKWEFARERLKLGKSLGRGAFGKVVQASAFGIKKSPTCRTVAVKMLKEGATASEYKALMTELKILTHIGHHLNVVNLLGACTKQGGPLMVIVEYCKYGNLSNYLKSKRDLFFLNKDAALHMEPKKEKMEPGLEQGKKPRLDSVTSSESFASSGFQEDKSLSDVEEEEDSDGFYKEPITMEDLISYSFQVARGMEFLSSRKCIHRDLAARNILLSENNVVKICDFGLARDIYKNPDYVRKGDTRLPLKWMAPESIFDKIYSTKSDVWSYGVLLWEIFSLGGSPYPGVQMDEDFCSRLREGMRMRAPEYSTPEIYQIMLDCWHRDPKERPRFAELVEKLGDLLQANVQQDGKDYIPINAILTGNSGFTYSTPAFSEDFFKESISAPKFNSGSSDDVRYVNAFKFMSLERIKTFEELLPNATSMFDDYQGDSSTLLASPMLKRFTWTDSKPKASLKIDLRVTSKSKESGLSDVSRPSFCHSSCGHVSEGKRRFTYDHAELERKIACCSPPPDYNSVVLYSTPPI

Neutrophil elastase = target: T3, Neutrophil elastase (Homo sapiens, UniProt P08246); type: tissue-based
T3 sequence (P08246 whole entry): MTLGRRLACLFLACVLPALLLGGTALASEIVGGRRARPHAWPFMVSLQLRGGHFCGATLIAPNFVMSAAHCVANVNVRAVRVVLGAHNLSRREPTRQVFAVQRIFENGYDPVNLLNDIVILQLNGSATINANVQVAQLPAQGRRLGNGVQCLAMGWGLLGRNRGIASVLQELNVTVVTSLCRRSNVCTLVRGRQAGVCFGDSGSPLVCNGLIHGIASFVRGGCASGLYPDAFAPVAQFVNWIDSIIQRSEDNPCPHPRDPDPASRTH

D(1A) dopamine receptor = D(1A) dopamine receptor (Homo sapiens, UniProt P21728); experiment: DRUGMATRIX: Dopamine D1 radioligand binding (ligand: [3H] SCH-23390); type: cell membranes, CHO, Membrane; conditions: cho; Not Active = under 50% inhibition at 10 µM
Sequence of D(1A) dopamine receptor (P21728 whole entry): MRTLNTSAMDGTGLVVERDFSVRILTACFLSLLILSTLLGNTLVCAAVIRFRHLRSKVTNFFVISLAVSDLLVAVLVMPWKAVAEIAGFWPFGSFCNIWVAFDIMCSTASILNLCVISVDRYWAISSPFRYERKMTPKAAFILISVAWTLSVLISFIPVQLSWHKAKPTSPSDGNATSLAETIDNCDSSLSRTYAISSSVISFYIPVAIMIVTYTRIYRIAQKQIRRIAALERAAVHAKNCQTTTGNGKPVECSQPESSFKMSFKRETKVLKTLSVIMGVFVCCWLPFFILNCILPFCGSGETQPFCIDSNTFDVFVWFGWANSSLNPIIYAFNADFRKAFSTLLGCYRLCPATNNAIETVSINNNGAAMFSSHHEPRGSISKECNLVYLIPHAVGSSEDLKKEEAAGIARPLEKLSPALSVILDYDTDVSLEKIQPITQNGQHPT

Sequence of Kappa-type opioid receptor (P41145 whole entry): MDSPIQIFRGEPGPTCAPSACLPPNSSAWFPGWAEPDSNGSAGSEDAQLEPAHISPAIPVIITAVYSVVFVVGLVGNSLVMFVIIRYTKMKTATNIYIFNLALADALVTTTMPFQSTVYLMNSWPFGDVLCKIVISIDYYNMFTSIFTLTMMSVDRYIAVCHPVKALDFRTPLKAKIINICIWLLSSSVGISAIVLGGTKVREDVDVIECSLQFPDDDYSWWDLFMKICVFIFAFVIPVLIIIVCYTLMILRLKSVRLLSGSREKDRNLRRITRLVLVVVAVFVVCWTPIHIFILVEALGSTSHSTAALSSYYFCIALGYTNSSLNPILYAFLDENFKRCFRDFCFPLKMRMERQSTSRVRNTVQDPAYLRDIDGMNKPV

C=C1CC[C@H](O)C/C1=C/C=C1\CCC[C@]2(C)[C@@H]([C@H](C)/C=C/[C@H](C)C(C)C)CC[C@@H]12 [ERGOCALCIFEROL]
Not Active: IC50 [1] | IC50 [2] | IC50 [3] | IC50 [4] | IC50 [5] | Ki [5] | IC50 [6] | Ki [6] | IC50 (Glycine receptor) | IC50 (Cytochrome P450 2A6) | Ki (Cytochrome P450 2A6) | IC50 [7] | IC50 (Neutrophil elastase) | IC50 (D(1A) dopamine receptor)

CC(C)n1c(/C=C/C(O)CC(O)CC(=O)O)c(-c2ccc(F)cc2)c2ccccc21 (configuration not stated) [FLUVASTATIN]
Not Active: IC50 [1] | IC50 [2] | IC50 [3] | IC50 [4] | IC50 [5] | Ki [5] | IC50 [6] | Ki [6] | IC50 (Glycine receptor) | IC50 (Cytochrome P450 2A6) | Ki (Cytochrome P450 2A6) | IC50 [7] | IC50 (Neutrophil elastase) | IC50 (D(1A) dopamine receptor)

NCC1(CC(=O)O)CCCCC1 [GABAPENTIN]
Not Active: IC50 [1] | IC50 [2] | IC50 [3] | IC50 [4] | IC50 [5] | Ki [5] | IC50 [6] | Ki [6] | IC50 (Glycine receptor) | IC50 (Cytochrome P450 2A6) | Ki (Cytochrome P450 2A6) | IC50 [7] | IC50 (Neutrophil elastase) | IC50 (D(1A) dopamine receptor)

CC[N+](CC)(CC)CCOc1cccc(OCC[N+](CC)(CC)CC)c1OCC[N+](CC)(CC)CC.[I-].[I-].[I-] [GALLAMINE TRIETHIODIDE]
Not Active: IC50 [1] | IC50 [2] | IC50 [3] | IC50 [4] | IC50 [5] | Ki [5] | IC50 [6] | Ki [6] | IC50 (Glycine receptor) | IC50 (Cytochrome P450 2A6) | Ki (Cytochrome P450 2A6) | IC50 [7] | IC50 (Neutrophil elastase) | IC50 (D(1A) dopamine receptor)

COc1c(N2CCNC(C)C2)c(F)cc2c(=O)c(C(=O)O)cn(C3CC3)c12 (configuration not stated) [GATIFLOXACIN]
Not Active: IC50 [1] | IC50 [2] | IC50 [3] | IC50 [4] | IC50 [5] | Ki [5] | IC50 [6] | Ki [6] | IC50 (Glycine receptor) | IC50 (Cytochrome P450 2A6) | Ki (Cytochrome P450 2A6) | IC50 [7] | IC50 (Neutrophil elastase) | IC50 (D(1A) dopamine receptor)

CC1(C)[C@@H](O[C@H]2O[C@H](C(=O)O)[C@@H](O)[C@H](O)[C@H]2O[C@@H]2O[C@H](C(=O)O)[C@@H](O)[C@H](O)[C@H]2O)CC[C@]2(C)[C@H]3C(=O)C=C4[C@@H]5C[C@@](C)(C(=O)O)CC[C@]5(C)CC[C@@]4(C)[C@]3(C)CC[C@@H]12 [GLYCYRRHIZIN]
Not Active: IC50 [1] | IC50 [2] | IC50 [3] | IC50 [4] | IC50 [5] | Ki [5] | IC50 [6] | Ki [6] | IC50 (Glycine receptor) | IC50 (Cytochrome P450 2A6) | Ki (Cytochrome P450 2A6) | IC50 [7] | IC50 (Neutrophil elastase) | IC50 (D(1A) dopamine receptor)

C/C=C1\[C@H]2C=C(C)C[C@]1(N)c1ccc(=O)[nH]c1C2 [HUPERZINE A]
Not Active: IC50 [1] | IC50 [2] | IC50 [3] | IC50 [4] | IC50 [5] | Ki [5] | IC50 [6] | Ki [6] | IC50 (Glycine receptor) | IC50 (Cytochrome P450 2A6) | Ki (Cytochrome P450 2A6) | IC50 [7] | IC50 (Neutrophil elastase) | IC50 (D(1A) dopamine receptor)

CC1COc2c(N3CCN(C)CC3)c(F)cc3c(=O)c(C(=O)O)cn1c23 (configuration not stated) [OFLOXACIN]
Not Active: IC50 [1] | IC50 [2] | IC50 [3] | IC50 [4] | IC50 [5] | Ki [5] | IC50 [6] | Ki [6] | IC50 (Glycine receptor) | IC50 (Cytochrome P450 2A6) | Ki (Cytochrome P450 2A6) | IC50 [7] | IC50 (Neutrophil elastase) | IC50 (D(1A) dopamine receptor)

Oc1cccc2cccnc12 [OXYQUINOLINE]
Not Active: IC50 [1] | IC50 [2] | IC50 [3] | IC50 [4] | IC50 [5] | Ki [5] | IC50 [6] | Ki [6] | IC50 (Glycine receptor) | IC50 (Cytochrome P450 2A6) | Ki (Cytochrome P450 2A6) | IC50 [7] | IC50 (Neutrophil elastase) | IC50 (D(1A) dopamine receptor)

CC(C)(S)[C@@H](N)C(=O)O [PENICILLAMINE]
Not Active: IC50 [1] | IC50 [2] | IC50 [3] | IC50 [4] | IC50 [5] | Ki [5] | IC50 [6] | Ki [6] | IC50 (Glycine receptor) | IC50 (Cytochrome P450 2A6) | Ki (Cytochrome P450 2A6) | IC50 [7] | IC50 (Neutrophil elastase) | IC50 (D(1A) dopamine receptor)

O=C1NC(=O)C(c2ccccc2)(c2ccccc2)N1 [PHENYTOIN]
Not Active: IC50 [1] | IC50 [2] | IC50 [3] | IC50 [4] | IC50 [5] | Ki [5] | IC50 [6] | Ki [6] | IC50 (Glycine receptor) | IC50 (Cytochrome P450 2A6) | Ki (Cytochrome P450 2A6) | IC50 [7] | IC50 (Neutrophil elastase) | IC50 (D(1A) dopamine receptor)

CCC1(c2ccccc2)C(=O)NCNC1=O [PRIMIDONE]
Not Active: IC50 [1] | IC50 [2] | IC50 [3] | IC50 [4] | IC50 [5] | Ki [5] | IC50 [6] | Ki [6] | IC50 (Glycine receptor) | IC50 (Cytochrome P450 2A6) | Ki (Cytochrome P450 2A6) | IC50 [7] | IC50 (Neutrophil elastase) | IC50 (D(1A) dopamine receptor)

COc1ccc(CN(CCN(C)C)c2ccccn2)cc1 [PYRILAMINE]
Not Active: IC50 [1] | IC50 [2] | IC50 [3] | IC50 [4] | IC50 [5] | Ki [5] | IC50 [6] | Ki [6] | IC50 (Glycine receptor) | IC50 (Cytochrome P450 2A6) | Ki (Cytochrome P450 2A6) | IC50 [7] | IC50 (Neutrophil elastase) | IC50 (D(1A) dopamine receptor)
